Experimental data from US20130023574A1, “METHOD FOR GENERATING DATA SET FOR INTEGRATED PROTEOMICS, INTEGRATED PROTEOMICS METHOD USING DATA SET FOR INTEGRATED PROTEOMICS THAT IS GENERATED BY THE GENERATION METHOD, AND METHOD FOR IDENTIFYING CAUSATIVE SUBSTANCE USING SAME” (National University Corporation Kumamoto University, priority 2010, published 2013).

Assays:
U373 cells = assay: Chemoresistance to TMZ (rate of living cells, absorbance) in glioma cell line U373; type: cell-based, human
Description: The experiment was carried out by inoculating the glioma cell line on a 96-well plate at the rate of 100 cells per well and adding TMZ at varying concentration ranging from 0 to 20 μM to each well after 5 hours of inoculation. After the plate was incubated for 6 days, absorbance at 450 nm was measured […]. The rate of living cells was expressed by percentage (%) at the defined concentrations of TMZ by setting the concentration rate of 0 μM as a control and as a standard rate of the living cells at the respective TMZ concentrations. […] In other words, it was found in the glioma cell line that the chemoresistance was increased to a higher extent as the variation expression amounts of vimentin were higher.
This experiment was implemented by inoculating a 6-well plate with glioma cells at the rate of 10^6 cells per well, followed by introduction of a vimentin siRNA or a control siRNA into the cells using lipofectamin 2000 after 24 hours of inoculation. […] After the plate was incubated for 6 days, absorbance at 450 nm was measured […]. […]
This experiment was implemented to investigate an influence of the PAK1-induced vimentin phosphorylation on the sensitivity to anticancer agents in the glioma cell line. […] After incubation for 6 days, the portion having absorbance at 420 nm was measured […]. The rate of living cells was expressed by percentage (%) at every set TMZ concentration by setting the TMZ concentration of 0 μM and absorbance for the stimulation with the PAK inhibitor as a standard living cell rate for the respective TMZ concentrations. […]
This experiment was carried out by inoculating a 96-well plate with the glioma cell line at the rate of 100 cells per well, followed by stimulation with 1 μM of Calpi or 1 μM of A23187 after 5 hours of inoculation and addition of TMZ at concentrations varying from 0 μM to 40 μM. After the glioma cell line was incubated for 6 days, the portion having absorbance at 420 nm was measured. […]

calpain = assay: Fragmentation of vimentin in glioma cell line U373 by Western blotting; type: cell-based, human
Description: In this experiment, calpain was activated A23187 (a calcium ionophor). After the glioma cell line U373 was stimulated with the calpain inhibitor and then confirmed by Western blotting. […] Therefore, it was confirmed that vimentin is cleaved with calpain.
It is known that, although the N-terminal serine residue of group A can be acetylated, the N-terminal amino acid sequence of the vimentin fragments of groups B, C and D, respectively, can be cleaved by calpain (FIGS. 41d, 45). Therefore, in order to confirm the phosphorylation of vimentin and the cleavage of the N-terminal vimentin with PAK1 and calpain, respectively, a pattern of the vimentin spots with GFP-vimentin (1-464.aa full length) overexpressed in the U373 glioma cell line was analyzed by 2D Western blotting using an anti-C-terminal vimentin antibody. […] Further, the particular fragmentation of vimentin was suppressed with the calpain inhibitor (FIG. 27).

| Compound | resistance to anticancer agents (rate of living cells) (U373 cells; U373 cells, 1 μM A23187, TMZ 20 and 40 μM, 6 days, vs control) | fragmentation of vimentin (calpain) | medicine resistance of the U373 glioma cells (U373 cells; FIG. 33, stimulation plus TMZ) | sensitivity to anticancer agents (rate of living cells) (U373 cells; glioma cell line, 3 μg/ml ephrin A1 or 30 μM serotonin, TMZ 5, 10, 20 and 40 μM, 6 days, vs control) |
| --- | --- | --- | --- | --- |
| CNc1ccc2oc(C[C@H]3O[C@@]4(CC[C@H]3C)O[C@H]([C@H](C)C(=O)c3ccc[nH]3)[C@H](C)C[C@H]4C)nc2c1C(=O)O [A23187] | upregulated the resistance to anticancer agents significantly | enhanced the fragmentation | – | – |
| NCCc1c[nH]c2ccc(O)cc12 [serotonin] | – | – | upregulated the medicine resistance | upregulated |
